# Legend:
# BRD3(1) = BRD3(1) (Homo sapiens, UniProt Q15059); assay type: binding
# BRPF1B = BRPF1B (Homo sapiens, UniProt P55201); experiment: biochemical; assay type: binding
# PB1(5) = biological target: T1, PB1(5) (Homo sapiens, UniProt Q86U86); assay type: binding
# T1 construct: Human BRDs were subcloned into bacteria-expressing vectors; made in house; host or cells: bacteria
# SMARCA2 = assay type: binding, human; conditions: pH 7.5
# TAF1(2) = biological target: T2, TAF1(2) (Homo sapiens, UniProt P21675); assay type: binding
# T2 construct: Human BRDs were subcloned into bacteria-expressing vectors; made in house; host or cells: bacteria
# T2 sequence (P21675 1519-1628 limits assumed): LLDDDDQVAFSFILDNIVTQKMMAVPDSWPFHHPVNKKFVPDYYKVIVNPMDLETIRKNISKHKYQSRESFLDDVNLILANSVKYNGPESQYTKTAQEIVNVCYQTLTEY
# NCI-60 tumor cell lines = assay type: cell-based, human
# MV4;11 = experiment: cells; assay type: cell-based, human; conditions: Homo sapiens, MV4-11, 72 h, read-out: IC50, cell proliferation
# alpha 2A (h) = alpha 2A (h) (Homo sapiens, UniProt P08913); experiment: biochemical; conditions: read-out: % Inhibition of Control Specific Binding
# beta 3 (h) = beta 3 (h) (Homo sapiens, UniProt P13945); experiment: biochemical; assay type: binding; conditions: read-out: % Inhibition of Control Specific Binding
# beta 3 (h), sequence (P13945 whole entry): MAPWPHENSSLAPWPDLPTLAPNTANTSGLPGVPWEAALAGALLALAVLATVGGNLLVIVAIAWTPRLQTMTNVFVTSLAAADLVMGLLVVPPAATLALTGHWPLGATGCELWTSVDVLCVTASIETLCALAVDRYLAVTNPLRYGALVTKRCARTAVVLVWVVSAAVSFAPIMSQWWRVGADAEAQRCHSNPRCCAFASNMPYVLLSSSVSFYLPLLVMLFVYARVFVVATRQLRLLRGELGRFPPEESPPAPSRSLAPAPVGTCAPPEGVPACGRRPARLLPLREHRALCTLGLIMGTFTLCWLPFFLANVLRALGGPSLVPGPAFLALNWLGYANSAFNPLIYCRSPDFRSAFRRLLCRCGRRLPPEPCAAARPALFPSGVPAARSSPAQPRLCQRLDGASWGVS
# AT1 (h) = AT1 (h) (Homo sapiens, UniProt P30556); experiment: biochemical; conditions: read-out: % Inhibition of Control Specific Binding
# CRF1 (h) = CRF1 (h) (Homo sapiens, UniProt P34998); experiment: biochemical; assay type: binding; conditions: read-out: % Inhibition of Control Specific Binding
# H2 (h) = H2 (h) (Homo sapiens, UniProt P25021); experiment: biochemical; conditions: read-out: % Inhibition of Control Specific Binding
# H2 (h), sequence (P25021 whole entry): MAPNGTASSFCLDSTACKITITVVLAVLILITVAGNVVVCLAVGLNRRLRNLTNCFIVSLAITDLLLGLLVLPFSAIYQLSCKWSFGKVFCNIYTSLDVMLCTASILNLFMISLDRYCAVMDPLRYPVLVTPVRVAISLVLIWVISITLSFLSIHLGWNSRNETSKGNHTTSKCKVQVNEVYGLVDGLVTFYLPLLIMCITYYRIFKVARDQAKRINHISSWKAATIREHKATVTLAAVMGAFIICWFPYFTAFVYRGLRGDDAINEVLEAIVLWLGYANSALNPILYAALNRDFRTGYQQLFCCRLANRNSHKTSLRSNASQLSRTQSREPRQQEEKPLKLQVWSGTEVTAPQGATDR
# MT3 (ML2) = MT3 (ML2) (Mesocricetus auratus, UniProt A0ABM2YAB8); experiment: biochemical; assay type: binding; conditions: read-out: % Inhibition of Control Specific Binding
# MAO-A = MAO-A (Rattus norvegicus, UniProt P21396); experiment: biochemical; conditions: read-out: % Inhibition of Control Specific Binding
# M1 (h) = M1 (h) (Homo sapiens, UniProt P11229); experiment: biochemical; conditions: read-out: % Inhibition of Control Specific Binding
# M1 (h), sequence (P11229 whole entry): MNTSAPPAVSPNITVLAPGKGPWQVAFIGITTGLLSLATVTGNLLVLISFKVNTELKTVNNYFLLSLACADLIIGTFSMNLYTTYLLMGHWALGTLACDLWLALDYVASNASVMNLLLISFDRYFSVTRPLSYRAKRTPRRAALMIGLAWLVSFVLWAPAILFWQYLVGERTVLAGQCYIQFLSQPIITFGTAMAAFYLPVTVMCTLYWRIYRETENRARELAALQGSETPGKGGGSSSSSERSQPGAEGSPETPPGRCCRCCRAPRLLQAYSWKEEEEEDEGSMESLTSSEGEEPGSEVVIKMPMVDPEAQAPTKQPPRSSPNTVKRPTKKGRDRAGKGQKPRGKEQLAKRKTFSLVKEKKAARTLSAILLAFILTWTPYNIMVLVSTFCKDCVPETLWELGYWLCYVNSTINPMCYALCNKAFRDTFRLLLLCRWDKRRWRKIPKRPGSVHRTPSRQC
# M4 (h) = M4 (h) (Homo sapiens, UniProt P08173); experiment: biochemical; conditions: read-out: % Inhibition of Control Specific Binding
# NK1 (h) = NK1 (h) (Homo sapiens, UniProt P25103); experiment: biochemical; conditions: read-out: % Inhibition of Control Specific Binding
# NK1 (h), sequence (P25103 whole entry): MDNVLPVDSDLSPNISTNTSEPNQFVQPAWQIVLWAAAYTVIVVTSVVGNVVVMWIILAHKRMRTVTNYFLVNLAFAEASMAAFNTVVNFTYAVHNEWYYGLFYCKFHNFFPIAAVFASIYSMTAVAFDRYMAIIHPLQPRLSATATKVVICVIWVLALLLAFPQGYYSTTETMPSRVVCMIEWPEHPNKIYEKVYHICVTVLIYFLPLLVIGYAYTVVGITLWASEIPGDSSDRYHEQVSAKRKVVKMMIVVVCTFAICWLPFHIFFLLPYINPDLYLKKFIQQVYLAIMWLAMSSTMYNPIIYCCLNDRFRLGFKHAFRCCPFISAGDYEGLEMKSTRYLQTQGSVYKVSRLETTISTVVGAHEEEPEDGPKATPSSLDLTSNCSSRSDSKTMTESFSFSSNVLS
# Y1 (h) = Y1 (h) (Homo sapiens, UniProt P25929); experiment: biochemical; conditions: read-out: % Inhibition of Control Specific Binding
# Y1 (h), sequence (P25929 whole entry): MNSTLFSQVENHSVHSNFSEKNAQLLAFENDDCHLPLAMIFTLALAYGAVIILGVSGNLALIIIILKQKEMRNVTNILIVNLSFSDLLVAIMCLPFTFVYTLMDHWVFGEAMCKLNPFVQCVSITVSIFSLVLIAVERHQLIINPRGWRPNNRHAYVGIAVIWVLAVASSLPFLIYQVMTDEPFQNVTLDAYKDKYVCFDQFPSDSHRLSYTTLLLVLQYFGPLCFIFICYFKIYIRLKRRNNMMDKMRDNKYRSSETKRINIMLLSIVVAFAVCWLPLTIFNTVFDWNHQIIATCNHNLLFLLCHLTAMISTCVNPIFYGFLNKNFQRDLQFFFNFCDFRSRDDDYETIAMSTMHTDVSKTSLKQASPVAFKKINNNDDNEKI
# kappa (KOP) = kappa (KOP) (Rattus norvegicus, UniProt P34975); experiment: biochemical; conditions: read-out: % Inhibition of Control Specific Binding
# mu (MOP) (h) = mu (MOP) (h) (Homo sapiens, UniProt P35372); experiment: biochemical; conditions: read-out: % Inhibition of Control Specific Binding
# PCP = assay type: binding
# LXRbeta (h) = LXRbeta (h) (Homo sapiens, UniProt P55055); experiment: biochemical; assay type: binding; conditions: read-out: % Inhibition of Control Specific Binding
# LXRbeta (h), sequence (P55055 whole entry): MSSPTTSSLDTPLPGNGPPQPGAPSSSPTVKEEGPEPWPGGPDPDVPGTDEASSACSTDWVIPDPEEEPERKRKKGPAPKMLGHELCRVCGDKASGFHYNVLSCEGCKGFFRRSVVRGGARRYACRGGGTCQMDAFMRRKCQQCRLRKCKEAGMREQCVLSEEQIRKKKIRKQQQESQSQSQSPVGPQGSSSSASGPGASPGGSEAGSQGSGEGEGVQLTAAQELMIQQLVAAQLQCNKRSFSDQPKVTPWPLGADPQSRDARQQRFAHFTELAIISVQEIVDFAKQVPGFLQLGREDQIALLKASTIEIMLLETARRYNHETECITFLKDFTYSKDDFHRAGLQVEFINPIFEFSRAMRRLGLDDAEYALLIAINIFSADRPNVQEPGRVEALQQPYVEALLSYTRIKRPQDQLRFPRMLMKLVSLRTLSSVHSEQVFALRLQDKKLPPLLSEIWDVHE
# 5-HT1D = 5-HT1D (Rattus norvegicus, UniProt P28565); experiment: biochemical; conditions: read-out: % Inhibition of Control Specific Binding
# 5-HT1D, sequence (P28565 whole entry): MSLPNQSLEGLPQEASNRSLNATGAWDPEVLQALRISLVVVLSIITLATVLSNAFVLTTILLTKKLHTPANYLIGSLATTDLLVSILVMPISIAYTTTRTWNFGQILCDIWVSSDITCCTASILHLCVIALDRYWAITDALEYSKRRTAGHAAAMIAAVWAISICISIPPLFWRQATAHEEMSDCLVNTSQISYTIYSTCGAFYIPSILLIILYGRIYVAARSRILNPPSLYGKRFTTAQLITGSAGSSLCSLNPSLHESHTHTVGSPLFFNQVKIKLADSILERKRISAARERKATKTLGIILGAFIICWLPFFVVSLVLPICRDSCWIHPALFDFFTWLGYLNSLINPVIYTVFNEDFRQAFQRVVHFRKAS
# TR (TH) = assay type: binding
# [1] = biological target: Ca2+ channel (L, dihydropyridine site) (Rattus norvegicus, UniProt P22002); experiment: biochemical; conditions: read-out: % Inhibition of Control Specific Binding
# BRD4(2) = BRD4(2) (Homo sapiens, UniProt O60885)
# alpha 2B (h) = alpha 2B (h) (Homo sapiens, UniProt P18089); experiment: biochemical; conditions: read-out: % Inhibition of Control Specific Binding
# alpha 2B (h), sequence (P18089 whole entry): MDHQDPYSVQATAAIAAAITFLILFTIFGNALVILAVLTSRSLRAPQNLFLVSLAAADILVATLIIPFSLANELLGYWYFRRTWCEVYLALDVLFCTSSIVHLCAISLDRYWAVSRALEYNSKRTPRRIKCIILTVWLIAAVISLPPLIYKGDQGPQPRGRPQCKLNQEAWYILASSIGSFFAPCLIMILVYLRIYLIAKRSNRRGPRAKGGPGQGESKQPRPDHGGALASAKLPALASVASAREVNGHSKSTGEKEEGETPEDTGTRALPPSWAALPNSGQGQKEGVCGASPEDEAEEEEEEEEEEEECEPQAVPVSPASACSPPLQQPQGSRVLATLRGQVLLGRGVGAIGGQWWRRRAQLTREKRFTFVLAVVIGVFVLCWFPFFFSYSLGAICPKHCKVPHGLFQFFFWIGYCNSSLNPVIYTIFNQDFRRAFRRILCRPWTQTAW
# beta 1 (h) = beta 1 (h) (Homo sapiens, UniProt P08588); experiment: biochemical; conditions: read-out: % Inhibition of Control Specific Binding
# APJ (apelin) (h) = APJ (apelin) (h) (Homo sapiens, UniProt P35414); experiment: biochemical; conditions: read-out: % Inhibition of Control Specific Binding
# D1 (h) = D1 (h) (Homo sapiens, UniProt P21728); experiment: biochemical; conditions: read-out: % Inhibition of Control Specific Binding
# H1 (h) = H1 (h) (Homo sapiens, UniProt P35367); experiment: biochemical; conditions: read-out: % Inhibition of Control Specific Binding
# MC4 (h) = MC4 (h) (Homo sapiens, UniProt P32245); experiment: biochemical; conditions: read-out: % Inhibition of Control Specific Binding
# MC4 (h), sequence (P32245 whole entry): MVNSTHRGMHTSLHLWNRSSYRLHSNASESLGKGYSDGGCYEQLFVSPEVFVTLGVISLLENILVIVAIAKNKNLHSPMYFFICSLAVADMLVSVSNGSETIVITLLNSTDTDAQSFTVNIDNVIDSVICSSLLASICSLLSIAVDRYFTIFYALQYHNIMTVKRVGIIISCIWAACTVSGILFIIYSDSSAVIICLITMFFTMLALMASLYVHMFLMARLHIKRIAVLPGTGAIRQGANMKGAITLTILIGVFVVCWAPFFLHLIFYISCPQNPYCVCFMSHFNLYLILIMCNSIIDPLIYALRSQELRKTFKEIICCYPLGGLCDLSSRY
# MT1 (ML1A) (h) = MT1 (ML1A) (h) (Homo sapiens, UniProt P48039); experiment: biochemical; conditions: read-out: % Inhibition of Control Specific Binding
# M2 (h) = M2 (h) (Homo sapiens, UniProt P08172); experiment: biochemical; conditions: read-out: % Inhibition of Control Specific Binding
# M2 (h), sequence (P08172 whole entry): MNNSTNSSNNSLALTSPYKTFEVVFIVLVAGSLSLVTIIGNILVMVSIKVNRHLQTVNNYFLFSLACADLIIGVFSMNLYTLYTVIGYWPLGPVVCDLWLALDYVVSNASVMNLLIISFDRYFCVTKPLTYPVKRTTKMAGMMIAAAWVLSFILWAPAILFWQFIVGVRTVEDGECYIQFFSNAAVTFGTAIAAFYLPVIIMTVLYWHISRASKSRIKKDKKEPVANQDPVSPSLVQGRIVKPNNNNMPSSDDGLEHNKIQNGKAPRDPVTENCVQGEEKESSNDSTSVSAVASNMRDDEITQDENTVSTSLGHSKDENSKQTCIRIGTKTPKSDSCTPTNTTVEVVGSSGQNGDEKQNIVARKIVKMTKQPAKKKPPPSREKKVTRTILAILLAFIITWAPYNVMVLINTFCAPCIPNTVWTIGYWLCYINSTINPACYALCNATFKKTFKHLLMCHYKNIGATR
# 5-HT1B = 5-HT1B (Rattus norvegicus, UniProt P28564); experiment: biochemical; conditions: read-out: % Inhibition of Control Specific Binding
# 5-HT1B, sequence (P28564 whole entry): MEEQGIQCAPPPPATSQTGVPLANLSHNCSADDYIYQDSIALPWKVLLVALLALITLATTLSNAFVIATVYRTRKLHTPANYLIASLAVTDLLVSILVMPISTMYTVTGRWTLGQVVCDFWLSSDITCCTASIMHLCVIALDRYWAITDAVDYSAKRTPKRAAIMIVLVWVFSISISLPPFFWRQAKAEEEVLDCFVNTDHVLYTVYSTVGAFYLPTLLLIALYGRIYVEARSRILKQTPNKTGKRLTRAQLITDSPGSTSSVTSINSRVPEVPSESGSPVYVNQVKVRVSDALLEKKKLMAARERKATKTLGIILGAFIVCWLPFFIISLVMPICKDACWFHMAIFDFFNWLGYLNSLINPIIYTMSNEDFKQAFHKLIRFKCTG
# 5-HT3 (h) = 5-HT3 (h) (Homo sapiens, UniProt P46098); experiment: biochemical; conditions: read-out: % Inhibition of Control Specific Binding
# 5-HT7 (h) = 5-HT7 (h) (Homo sapiens, UniProt P34969); experiment: biochemical; conditions: read-out: % Inhibition of Control Specific Binding
# V1a (h) = V1a (h) (Homo sapiens, UniProt P37288); experiment: biochemical; conditions: read-out: % Inhibition of Control Specific Binding
# T1 sequence (Q86U86 653-763 limits assumed): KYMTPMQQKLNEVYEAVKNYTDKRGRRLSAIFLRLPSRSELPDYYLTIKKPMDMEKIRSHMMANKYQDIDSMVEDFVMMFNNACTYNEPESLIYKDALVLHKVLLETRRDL
# BRPF1B, sequence (P55201 628-732): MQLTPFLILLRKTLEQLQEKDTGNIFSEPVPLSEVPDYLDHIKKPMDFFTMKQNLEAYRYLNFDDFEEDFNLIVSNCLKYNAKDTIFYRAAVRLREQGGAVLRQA
# BRD3(1), sequence (Q15059 34-140 limits assumed): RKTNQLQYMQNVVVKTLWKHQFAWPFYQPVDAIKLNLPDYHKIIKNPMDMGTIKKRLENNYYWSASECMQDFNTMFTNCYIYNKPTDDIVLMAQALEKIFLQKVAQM
structure (smiles),measurement,setting,value
"CCOC(=O)Nc1cc(-c2ccc(C)c(NS(C)(=O)=O)c2)nn2c(C)nnc12 [BSP, ethyl (3-methyl-6-(4-methyl-3-(methylsulfonamido)phenyl)-[1,2,4]triazolo[4,3-b]pyridazin-8-yl)carbamate]",N,BRD3(1),1.00 ± 0.002
same,TΔS,BRD3(1),-0.95 kcal/mol
same,ΔG,BRD3(1),-9.08 kcal/mol
same,Kd,BRPF1B,312 ± 11.2 nM
same,N,BRPF1B,1.00 ± 0.003
same,TΔS,BRPF1B,2.45 kcal/mol
same,ΔG,BRPF1B,-8.57 kcal/mol
same,ΔH^obs,BRPF1B,-6.12 ± 0.021 kcal/mol
same,N,PB1(5),1.09 ± 0.053
same,TΔS,PB1(5),3.20 kcal/mol
same,ΔG,PB1(5),-6.39 kcal/mol
same,ΔH^obs,PB1(5),-3.19 ± 0.183 kcal/mol
same,KD,SMARCA2,Weak binding
same,N,TAF1(2),0.98 ± 0.003
same,TΔS,TAF1(2),-3.80 kcal/mol
same,ΔG,TAF1(2),-10.25 kcal/mol
same,ΔH^obs,TAF1(2),-14.05 ± 0.095 kcal/mol
same,growth inhibition,NCI-60 tumor cell lines,strong growth inhibition
same,IC50,MV4;11,579 nM
same,inhibition at 10 µM,alpha 2A (h),7%
same,inhibition at 10 µM,beta 3 (h),11%
same,inhibition at 10 µM,AT1 (h),-1%
same,inhibition at 10 µM,CRF1 (h),-50%
same,inhibition at 10 µM,H2 (h),5%
same,inhibition at 10 µM,MT3 (ML2),103%
same,inhibition at 10 µM,MAO-A,7%
same,inhibition at 10 µM,M1 (h),39%
same,inhibition at 10 µM,M4 (h),-6%
same,inhibition at 10 µM,NK1 (h),7%
same,inhibition at 10 µM,Y1 (h),-10%
same,inhibition at 10 µM,kappa (KOP),17%
same,inhibition at 10 µM,mu (MOP) (h),1%
same,% Inhibition of Control Specific Binding,PCP,-6
same,inhibition at 10 µM,LXRbeta (h),-9%
same,inhibition at 10 µM,5-HT1D,4%
same,% Inhibition of Control Specific Binding,TR (TH),11
same,inhibition at 10 µM,[1],-4%
same,N,BRD4(2),0.94 ± 0.001
same,TΔS,BRD4(2),3.17 kcal/mol
same,ΔG,BRD4(2),-9.77 kcal/mol
same,ΔH^obs,BRD4(2),-6.60 ± 0.018 kcal/mol
same,inhibition at 10 µM,alpha 2B (h),2%
same,inhibition at 10 µM,beta 1 (h),4%
same,inhibition at 10 µM,APJ (apelin) (h),-2%
same,inhibition at 10 µM,D1 (h),-13%
same,inhibition at 10 µM,H1 (h),1%
same,inhibition at 10 µM,MC4 (h),-23%
same,inhibition at 10 µM,MT1 (ML1A) (h),14%
same,inhibition at 10 µM,M2 (h),12%
same,inhibition at 10 µM,5-HT1B,-13%
same,inhibition at 10 µM,5-HT3 (h),3%
same,inhibition at 10 µM,5-HT7 (h),7%
same,inhibition at 10 µM,V1a (h),-6%

# Source: PMC5061470, “Promiscuous targeting of bromodomains by bromosporine identifies BET proteins as master regulators of primary transcription response in leukemia” (Science Advances, 2016)
